ChEMBL document CHEMBL1153832, “Identification and characterization of UK-201844, a novel inhibitor that interferes with human immunodeficiency virus type 1 gp160 processing” (Antimicrob Agents Chemother, 2007)
Calls of active or inactive are those of the source. The rule behind the calls is not given here.

Assays:
[1] = test system: Human immunodeficiency virus 1; experiment: Antiviral activity against recombinant HIV1 NL4-3 bearing envelope with D474N substitution infected in human MT2 cells by virus production assay; type: functional, organism-based
[2] = test system: Human immunodeficiency virus 1; experiment: Antiviral activity against recombinant HIV1 NL4-3 bearing envelope with S162N, N302Y, G354E, V372E, D474N substitutions infected in human MT2 cells by virus production assay; type: functional, organism-based
[3] = test system: Human immunodeficiency virus 1; experiment: Antiviral activity against HIV1 NL4-3 infected in human MT2 cells assessed as inhibition of virus-induced cytopathic effect after 6 days by XTT assay; type: functional, organism-based; conditions: Human immunodeficiency virus 1, NL4-3, MT2, 144 h
[4] = test system: Human immunodeficiency virus 1; experiment: Antiviral activity against HIV1 bearing HIV1 NL4-3 envelope infected in human MT2 cells assessed as inhibition of HIV-envelope packed virions at 15 uM after 72 hrs by virus production assay relative to control; type: functional; conditions: Human immunodeficiency virus 1, MT2, 72 h
[5] = test system: Human immunodeficiency virus 1; experiment: Ratio of EC50 for recombinant HIV1 NL4-3 bearing envelope with G354E, V372E substitutions to EC50 for parental HIV1 NL4-3; type: functional
[6] = test system: Human immunodeficiency virus 1; experiment: Antiviral activity against HIV1 NL4-3 infected in human MT2 cells assessed as inhibition of viral p24 antigen level at 7.5 uM by Western blot; type: functional; conditions: Human immunodeficiency virus 1, NL4-3, MT2
[7] = Therapeutic index, ratio of CC50 for human MT2 cells to EC50 for HIV1 NL4-3; type: cell-based; conditions: read-out: TI
[8] = test system: Human immunodeficiency virus 1; experiment: Antiviral activity against HIV1 NL4-3 infected in human CEM-SS cells; type: functional, organism-based
[9] = test system: Human immunodeficiency virus 1; experiment: Antiviral activity against HIV1 bearing VSV envelope infected in human MT2 cells assessed as inhibition of VSV-envelope packed virions at 15 uM after 72 hrs by virus production assay relative to control; type: functional; conditions: Human immunodeficiency virus 1, MT2, 72 h
[10] = test system: Human immunodeficiency virus 1; experiment: Antiviral activity against recombinant HIV1 NL4-3 bearing envelope with G354E, D474N substitutions infected in human MT2 cells by virus production assay; type: functional, organism-based
[11] = Therapeutic index, ratio of CC50 for human MT2 cells to EC50 for HIV1 Ba-L; type: cell-based; conditions: read-out: TI
[12] = test system: Human immunodeficiency virus 1; experiment: Antiviral activity against recombinant HIV1 NL4/3BCt chimeric virus infected in human MT2 cells assessed as inhibition of virus-induced CPE; type: functional, organism-based; conditions: Human immunodeficiency virus 1, NL4/3BCt
[13] = test system: Human immunodeficiency virus 1; experiment: Ratio of EC50 for recombinant HIV1 NL4-3 bearing envelope with G354E substitution to EC50 for parental HIV1 NL4-3; type: functional
[14] = test system: Human immunodeficiency virus 1; experiment: Antiviral activity against HIV1 NL4-3 transfected in HEK293 cells assessed as inhibition of viral envelope gp160 processing at 0.5 uM by Western blot; type: functional; conditions: Human immunodeficiency virus 1, NL4-3, HEK293
[15] = test system: Human immunodeficiency virus 1; experiment: Antiviral activity against HIV1 bearing HIV1 NL4-3 envelope infected in human HeLa CD4 cells coexpressing LTR/beta-Gal gene assessed as reduction in virus-induced beta-galactosidase reporter gene activity after 72 hrs by single-cycle infection assay; type: functional, organism-based; conditions: Human immunodeficiency virus 1, HeLa
[16] = test system: Human immunodeficiency virus 1; experiment: Inhibition of HIV1 NL4-3 proteins incorporation into virions transfected in HEK293 cells assessed as aberrant Env protein at 15 uM by Western blot; type: functional, organism-based
[17] = test system: Human immunodeficiency virus 1; experiment: Antiviral activity against HIV1 NL4-3 transfected in HEK293 cells assessed as inhibition of viral envelope gp160 processing at 1.0 uM by Western blot; type: functional; conditions: Human immunodeficiency virus 1, NL4-3, HEK293
[18] = test system: Human immunodeficiency virus 1; experiment: Ratio of EC50 for recombinant HIV1 NL4-3 bearing envelope with D474N substitution to EC50 for parental HIV1 NL4-3; type: functional
[19] = test system: Human immunodeficiency virus 1; experiment: Antiviral activity against recombinant HIV1 NL4-3 bearing envelope with V372E substitution infected in human MT2 cells by virus production assay; type: functional, organism-based
[20] = Cytotoxicity against human MT2 cells after 6 days by XTT assay; type: cell-based
[21] = test system: Human immunodeficiency virus 1; experiment: Antiviral activity against HIV1 NL4-3 infected in human 174XCEM T-cells; type: functional, organism-based
[22] = test system: Human immunodeficiency virus 1; experiment: Ratio of EC50 for recombinant HIV1 NL4-3/3BFL chimeric virus to EC50 for parental HIV1 NL4-3 virus; type: functional
[23] = test system: Human immunodeficiency virus 1; experiment: Antiviral activity against HIV1 NL4-3 transfected in HEK293 cells assessed as inhibition of viral envelope gp160 processing at 15 uM by Western blot; type: functional; conditions: Human immunodeficiency virus 1, NL4-3, HEK293
[24] = test system: Human immunodeficiency virus 1; experiment: Antiviral activity against HIV1 NL4-3 infected in human MT2 cells assessed as inhibition of viral p24 antigen level at 0.5 uM by Western blot; type: functional; conditions: Human immunodeficiency virus 1, NL4-3, MT2
[25] = biological target: T1, Proprotein convertase subtilisin/kexin type 6 (Rattus norvegicus) (UniProt Q63415); experiment: Inhibition of rat PACE4 up to 100 uM
T1 sequence (whole entry): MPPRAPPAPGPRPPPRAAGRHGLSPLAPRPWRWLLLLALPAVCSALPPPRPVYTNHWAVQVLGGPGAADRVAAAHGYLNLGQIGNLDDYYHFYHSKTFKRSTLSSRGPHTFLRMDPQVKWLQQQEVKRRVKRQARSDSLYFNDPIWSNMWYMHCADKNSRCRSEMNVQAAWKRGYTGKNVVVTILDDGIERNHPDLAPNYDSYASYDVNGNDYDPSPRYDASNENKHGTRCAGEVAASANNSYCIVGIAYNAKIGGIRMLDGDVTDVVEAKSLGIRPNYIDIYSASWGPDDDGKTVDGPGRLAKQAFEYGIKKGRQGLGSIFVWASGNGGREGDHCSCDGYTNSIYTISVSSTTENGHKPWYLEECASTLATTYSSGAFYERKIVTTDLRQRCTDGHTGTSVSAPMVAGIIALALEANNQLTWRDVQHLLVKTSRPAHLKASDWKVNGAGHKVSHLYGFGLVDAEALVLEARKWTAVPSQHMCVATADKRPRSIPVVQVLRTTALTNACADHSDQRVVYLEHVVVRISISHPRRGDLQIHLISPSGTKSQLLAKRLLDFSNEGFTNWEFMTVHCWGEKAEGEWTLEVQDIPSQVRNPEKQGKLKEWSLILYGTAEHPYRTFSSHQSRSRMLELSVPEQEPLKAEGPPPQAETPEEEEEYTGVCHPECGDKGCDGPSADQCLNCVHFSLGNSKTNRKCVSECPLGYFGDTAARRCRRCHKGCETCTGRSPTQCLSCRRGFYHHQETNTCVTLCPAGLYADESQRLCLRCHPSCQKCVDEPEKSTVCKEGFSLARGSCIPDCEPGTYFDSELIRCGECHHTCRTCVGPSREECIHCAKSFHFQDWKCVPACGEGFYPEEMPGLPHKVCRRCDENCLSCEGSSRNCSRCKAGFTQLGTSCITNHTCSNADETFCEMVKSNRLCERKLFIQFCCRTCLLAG

[26] = test system: Human immunodeficiency virus 1; experiment: Antiviral activity against recombinant HIV1 NL4-3 bearing envelope with V372E, D474N substitutions infected in human MT2 cells by virus production assay; type: functional, organism-based
[27] = test system: Human immunodeficiency virus 1; experiment: Antiviral activity against recombinant HIV1 NL4-3 bearing envelope with S162N, N302Y substitutions infected in human MT2 cells by virus production assay; type: functional, organism-based
[28] = test system: Human immunodeficiency virus 1; experiment: Antiviral activity against recombinant HIV1 NL4-3 bearing envelope with G354E, V372E substitutions infected in human MT2 cells by virus production assay; type: functional, organism-based
[29] = test system: Human immunodeficiency virus 1; experiment: Antiviral activity against HIV1 bearing VSV envelope infected in human HeLa CD4 cells coexpressing LTR/beta-Gal gene assessed as reduction in virus-induced beta-galactosidase reporter gene activity after 72 hrs by single-cycle infection assay; type: functional, organism-based; conditions: Human immunodeficiency virus 1, HeLa
[30] = test system: Human immunodeficiency virus 1; experiment: Antiviral activity against HIV1 NL4/3BFL chimeric virus infected in human MT2 cells assessed as inhibition of viral p24 antigen level at 2 uM by Western blot; type: functional; conditions: Human immunodeficiency virus 1, NL4/3BFL

`NC(=O)C(c1ccccc1)(c1ccccc1)[C@H]1CCCN(CCc2ccc3c(c2)CCO3)C1` showed an EC50 [1] of 6.1 µM, an EC50 [2] of over 32 µM and an EC50 [3] of 1.3 µM. For the same compound, the inhibition in vivo at 15 µM [4] was 99.5%, the “fold change (FC)” value [5] was 2.1 and the inhibition at 7.5 µM [6] was 99%. The selectivity ratio [7] was 41, the EC50 [8] was “Active” and the inhibition in vivo at 15 µM [9] was -6%. For the same compound, the EC50 [10] was over 32 µM, the selectivity ratio [11] was 2 and the EC50 [12] was 5.3 µM. For the same compound, the “fold change (FC)” value [13] was 0.9, the inhibition at 0.5 µM [14] was 12% and the EC50 [15] was over 32 µM. For the same compound, the Activity [16] was “Active”, the inhibition at 1 µM [17] was 44% and the “fold change (FC)” value [18] was 6. The EC50 [19] was 0.9 µM, the CC50 at 144 h [20] was 53 µM and the EC50 [21] was “Active”. For the same compound, the “fold change (FC)” value [22] was over 25, the inhibition at 15 µM [23] was 100% and the inhibition at 0.5 µM [24] was 12%. For the same compound, the Activity [25] was “inactive”, the EC50 [26] was over 32 µM and the EC50 [27] was 8.6 µM. It also gave an EC50 [28] of 2.2 µM, an EC50 [29] of over 32 µM and an inhibition at 2 µM [30] of 2%.
